Reference: patent publication US6987132B1, “Enediyne compounds and methods related thereto” (Advanced Research and Technology Institute, Inc., priority 2000, dated 2006)

Legend:
[1] = Bergman enediyne cyclization temperature by differential scanning calorimetry (DSC) on neat materials; assay type: physicochemical; settings: for Cyclization Temperature: free ligand, neat material, DSC, heating rate 10° C. min^−1; for Bergman cyclization temperature: comparison enediynes named in text, method not stated for them
Procedure: All preparations were carried out in an inert atmosphere (nitrogen) using Schlenk and drybox techniques. Chemicals used in the syntheses were of the highest purity available from Aldrich Chemical Company and used as received. Dichloromethane was dried and distilled from calcium hydride. The organic compounds were purified by flash chromatography with 60 Å Silica gel ([…]) using HPLC grade solvents. ^1H and ^13C NMR were recorded on VXR 400 MHz NMR spectrometer using the residual proton resonance as an internal reference. The multiplicity of the ^13C signals was determined by the DEPT technique. EI and FAB MS spectra were acquired on a Kratos MS-80 mass spectrometer that was interfaced with a Kratos DS90 data system. Differential scanning calorimetry traces were recorded on a General V4.1C DuPont 910 DSC differential scanning calorimeter coupled to a Dupont Thermal Analyst 2100 at a heating rate of 10° C. min^−1.

[2] = Reactivity of enediyne ligand upon addition of metal salts at room temperature; assay type: physicochemical
[3] = Thermal cyclization temperature and stability of free ligands in solution; settings: for could tolerate heating to (temperature): free ligand in solution; for thermal cyclization temperature in solution: absence of metal
[4] = Pseudo first-order rate constant and half-life of thermal reactivity in DMSO by 1H NMR; assay type: physicochemical; settings: 65° C., 20-fold cyclohexadiene
From the text: As is often observed in solution cyclization reactions of enediynes, a series of products was produced, which in this case included di-substituted benzenes, and as such no dominant species could be isolated from the reaction.

Cyclization Temperature [1] [°C]	Structure (SMILES)	could tolerate heating to (temperature) [3]	thermal cyclization temperature in solution [3]	Bergman cyclization temperature [1] [°C]	further results
	C(#Cc1cccnc1)C=CC#Cc1cccnc1 [1,6-bis(pyridine-3)hex-3-ene-1,5-diyne, reference compound]			195	
186	CN(C)CC#CC=CC#CCN(C)C [Compound 4, 1,8-bis(dimethylamino)oct-4-ene-2,6-diyne]				
106	NCC#CC=CC#CCN [Compound 12, 1,8-diaminooct-4-ene-2,6-diyne]	about 50 °C	about 65 °C		decrease in the Bergman cyclization temperature ([1]; relative to the preceding compound of the series 4, 9, 12): 37 °C; pseudo first-order rate constant kobs [4]: 0.0416 h⁻¹
	C(#CCOc1cccnc1)C=CC#CCOc1cccnc1 [bpod, 1,8-bis(pyridine-3-oxy)oct-4-ene-2,6-diyne, reference compound]			136	

Structure (SMILES)	Cyclization Temperature [1] [°C]	could tolerate heating to (temperature) [3]	thermal cyclization temperature in solution [3]	Bergman cyclization temperature [1] [°C]	further results
C(#CCN=Cc1ccccn1)/C=C\C#CCN=Cc1ccccn1 (stereo in doubt) [Compound 14, (Z)-N,N′-Bis[1-pyridin-2-yl-meth-(E)-ylidene]oct-4-ene-2,6-diyne-1,8-diamine]	100	about 50 °C	about 55 °C		time to reaction completion ([2]; addition of MgCl2, no additional heating): 2 h; time to reaction completion ([2]; addition of zinc acetate): 0.083 h; observation upon addition of Zn(II) or Cu(II) ([2]; room temperature): turned black instantaneously
